Test results: patent US20230357253A1, “AGONISTS OF STIMULATOR OF INTERFERON GENES STING” (THE SCRIPPS RESEARCH INSTITUTE, priority 2020, published 2023)

System: THP-1 Lucia ISG cells
Assay: ISRE-luciferase assay (ISG-LUC activation)
Type: cell-based
Conditions: Homo sapiens, THP1-Lucia ISG, 24 hours, luciferase reporter
Description: ISRE-luciferase assay. THP-1 Lucia ISG cells were resuspended in low-serum growth media (2% FBS) at a density of 5×10^5 cells/ml and treated with test article or vehicle (DMSO). 50 μL of cells were seeded into each well of a 384-well white greiner plates and incubated for 24 hours. To evaluate expression of the luciferase reporter, 30 μl of Quanti-luc (Invivogen) detection reagent was added to each well and luminescence was read using an Envision plate reader (Perkin Elmer) set with an integration time of 0.1 seconds. For each cell type, luminescence signals for test article samples were normalized to vehicle-treated samples and reported as relative light units (RLU).

SMILES | EC50 [nM]
O=C(Nc1cc(OCCCCOc2cc(NC(=O)c3ccc4nnnn4n3)c(C(=O)O)cc2F)ccc1C(=O)O)c1ccc2nnnn2n1 [Compound 1, 4-(4-(4-carboxy-3-(tetrazolo[1,5-b]pyridazine-6-carboxamido)phenoxy)butoxy)-5-fluoro-2-(tetrazolo[1,5-b]pyridazine-6-carboxamido)benzoic acid] | 500 to 5000
O=C(Nc1cc(CCOc2cc(NC(=O)c3ccc4nnnn4n3)c(C(=O)O)cc2F)c(F)cc1C(=O)O)c1ccc(-n2ccnc2)nn1 [Compound 2, 2-(6-(1H-imidazol-1-yl)pyridazine-3-carboxamido)-4-(2-(4-carboxy-2-fluoro-5-(tetrazolo[1,5-b]pyridazine-6-carboxamido)phenoxy)ethyl)-5-fluorobenzoic acid] | < 50
O=C(Nc1cc(C[S+]([O-])Cc2cc(NC(=O)c3ccc(-n4ccnc4)nn3)c(C(=O)O)cc2F)c(F)cc1C(=O)O)c1ccc(-n2ccnc2)nn1 [Compound 7, 4,4′-(sulfinylbis(methylene))bis(2-(6-(1H-imidazol-1-yl)pyridazine-3-carboxamido)-5-fluorobenzoic acid)] | 500 to 5000
CN(Cc1cc(NC(=O)c2ccc(-n3ccnc3)nn2)c(C(=O)O)cc1F)Cc1cc(NC(=O)c2ccc(-n3ccnc3)nn2)c(C(=O)O)cc1F [Compound 8, 4,4′-((methylazanediyl)bis(methylene))bis(2-(6-(1H-imidazol-1-yl)pyridazine-3-carboxamido)-5-fluorobenzoic acid)] | 500 to 5000
O=C(Nc1cc(OCCCCOc2cc(NC(=O)c3ccc4nnnn4n3)c(C(=O)O)cc2F)c(F)cc1C(=O)O)c1ccc2nnnn2n1 [Compound 12] | 50 to 500
O=C(Nc1cc(OCCCCOc2ccc(C(=O)O)c(NC(=O)c3ccc(-n4ccnc4)nn3)c2)ccc1C(=O)O)c1ccc(-n2ccnc2)nn1 [Compound 16] | > 5000
COc1cc(C(=O)O)c(NC(=O)c2ccc(-n3ccnc3)nn2)cc1OCCc1cc(C(=O)O)c(NC(=O)c2ccc(-n3ccnc3)nn2)cc1Cl [Compound 156] | 50 to 500
COC(=O)c1cc(F)c(OCCc2cc(NC(=O)c3ccc(-n4ccnc4)nn3)c(C(=O)OC)cc2C#N)cc1NC(=O)c1ccc(-n2ccnc2)nn1 [Compound 157] | 500 to 5000
O=C(Nc1cc(CCCc2cc(NC(=O)c3ccc(-n4ccnc4)nn3)c(C(=O)O)cc2F)c(F)cc1C(=O)O)c1ccc(-c2cn[nH]c2)nn1 [Compound 159] | 50 to 500
N#Cc1cc(C(=O)O)c(NC(=O)c2ccc(-n3ccnc3)nn2)cc1CCOc1cc(NC(=O)c2ccc(-n3ccnc3)nn2)c(C(=O)O)cc1F [Compound 162] | 50 to 500
COC(=O)c1cc(F)c(CCOc2cc(NC(=O)c3ccc(-n4ccnc4)nn3)c(C(=O)OC)cc2C#N)cc1NC(=O)c1ccc(-n2ccnc2)nn1 [Compound 163] | 500 to 5000
O=C(Nc1cc(CCCc2cc(NC(=O)c3ccc(-n4ccnc4)nn3)c(C(=O)O)s2)c(F)cc1C(=O)O)c1ccc(-n2ccnc2)nn1 [Compound 164] | 50 to 500
COC(=O)c1cc(F)c(CCCc2cc(NC(=O)c3ccc(-n4ccnc4)nn3)c(C(=O)OC)s2)cc1NC(=O)c1ccc(-n2ccnc2)nn1 [Compound 165] | 50 to 500
O=C(Nc1cc(OCCc2cc(C(=O)O)c(NC(=O)c3ccc(-n4ccnc4)nn3)cc2Cl)c(F)cc1C(=O)O)c1ccc(-n2ccnc2)nn1 [Compound 166] | 50 to 500
O=C(Nc1cc(OCCCOc2cc(NC(=O)c3ccc(-n4ccnc4)nn3)c(C(=O)O)cc2F)c(F)cc1C(=O)O)c1ccc(-n2ccnc2)nn1 [Compound 168] | 50 to 500
O=C(Nc1cc(OCCc2cc(C(=O)O)c(NC(=O)c3ccc4nnnn4n3)cc2F)c(F)cc1C(=O)O)c1ccc(-n2ccnc2)nn1 [Compound 169] | 50 to 500
O=C(Nc1cc(CCCc2cc(NC(=O)c3ccc(-n4ccnc4)nn3)c(C(=O)O)cc2Cl)c(F)cc1C(=O)O)c1ccc(-n2ccnc2)nn1 [Compound 174] | 50 to 500
O=C(Nc1cc(COc2cc(NC(=O)c3ccc(-n4ccnc4)nn3)c(C(=O)O)cc2F)c(F)cc1C(=O)O)c1ccc(-n2ccnc2)nn1 [Compound 175] | 500 to 5000
O=C(Nc1cc(OCCc2c(F)cc(NC(=O)c3ccc(-n4ccnc4)nn3)c(C(=O)O)c2F)c(F)cc1C(=O)O)c1ccc(-n2ccnc2)nn1 [Compound 177] | < 50
O=C(Nc1cc(CCc2cc(C(=O)O)c(NC(=O)c3ccc(-n4ccnc4)nn3)cc2F)c(F)cc1C(=O)O)c1ccc(-n2ccnc2)nn1 [Compound 180] | > 5000
N#Cc1cc(C(=O)O)c(NC(=O)c2ccc(-n3ccnc3)nn2)cc1CCCc1cc(NC(=O)c2ccc(-n3ccnc3)nn2)c(C(=O)O)cc1F [Compound 182] | 50 to 500
COC(=O)c1cc(F)c(OCCc2cc(C(=O)OC)c(NC(=O)c3ccc(-n4ccnc4)nn3)cc2C#N)cc1NC(=O)c1ccc(-n2ccnc2)nn1 [Compound 188] | > 5000
O=C(Nc1cc(OCc2cc(C(=O)O)c(NC(=O)c3ccc(-n4ccnc4)nn3)cc2F)c(F)cc1C(=O)O)c1ccc(-n2ccnc2)nn1 [Compound 190] | > 5000
O=C(Nc1cc(OCCOc2cc(C(=O)O)c(NC(=O)c3ccc(-n4ccnc4)nn3)cc2F)c(F)cc1C(=O)O)c1ccc(-n2ccnc2)nn1 [Compound 191] | 50 to 500
CC(Cc1cc(NC(=O)c2ccc(-n3ccnc3)nn2)c(C(=O)O)cc1F)Cc1cc(NC(=O)c2ccc(-n3ccnc3)nn2)c(C(=O)O)cc1F [Compound 194] | 50 to 500
O=C(Nc1cc(CCSc2cc(NC(=O)c3ccc(-n4ccnc4)nn3)c(C(=O)O)cc2F)c(F)cc1C(=O)O)c1ccc(-n2ccnc2)nn1 [Compound 195] | < 50
C=C(Cc1cc(NC(=O)c2ccc(-n3ccnc3)nn2)c(C(=O)O)cc1F)Cc1cc(NC(=O)c2ccc(-n3ccnc3)nn2)c(C(=O)O)cc1F [Compound 199] | 50 to 500
O=C(Nc1cc(OCCc2cc(C(=O)O)c(NC(=O)c3ccc(-c4cn[nH]c4)nn3)cc2F)c(F)cc1C(=O)O)c1ccc(-c2cn[nH]c2)nn1 [Compound 204] | 50 to 500
O=C(Nc1cc(CCOc2cc(NC(=O)c3ccc(-n4ccnc4)nn3)c(C(=O)O)cc2F)c(F)cc1C(=O)O)c1ccc(-c2cn[nH]c2)nn1 [Compound 205] | < 50
C#Cc1cc(NC(=O)c2ccc(-n3ccnc3)nn2)c(C(=O)O)cc1OCCc1cc(NC(=O)c2ccc(-n3ccnc3)nn2)c(C(=O)O)cc1F [Compound 209] | < 50

Target: human STING protein (Homo sapiens (Human), UniProt Q86WV6)
Assay: WT STING binding assay (HTRF, competition with labeled 2′3′cGAMP)
Conditions: recombinant 6×His-tagged human STING, three hours at room temperature
Description: WT STING binding assay (Cisbio, Catalog #64BDSTGPEH). […] Upon proximity of the two dyes, the excitation of the donor by the flash lamp on the PHERAstar FSX plate reader triggers a Fluorescence Resonance Energy Transfer (FRET) towards the acceptor, which in turn fluoresces at 665 nm. To assess the ability of the synthetic small molecule STING ligands to bind to human STING, a competitive assay format was applied. A 10-point titration of each of the synthetic ligands in 5 uL were transferred into a 384 well plate, followed by 20 uL of assay buffer containing the 6×His-tagged human STING protein and labeled 2′3′cGAMP ligand and incubated for three hours at room temperature. The raw values obtained from the PHERAstar were used to calculate the reported IC50 values (the signal is inversely proportional to the binding of the synthetic ligand) through curve fitting in Genedata. The percent inhibition was calculated based upon the maximal amount of binding by synthetic compound versus the maximum binding of unlabeled 2′3′ cGAMP which was used as a control in each assay.

human STING protein, sequence (Q86WV6 whole entry): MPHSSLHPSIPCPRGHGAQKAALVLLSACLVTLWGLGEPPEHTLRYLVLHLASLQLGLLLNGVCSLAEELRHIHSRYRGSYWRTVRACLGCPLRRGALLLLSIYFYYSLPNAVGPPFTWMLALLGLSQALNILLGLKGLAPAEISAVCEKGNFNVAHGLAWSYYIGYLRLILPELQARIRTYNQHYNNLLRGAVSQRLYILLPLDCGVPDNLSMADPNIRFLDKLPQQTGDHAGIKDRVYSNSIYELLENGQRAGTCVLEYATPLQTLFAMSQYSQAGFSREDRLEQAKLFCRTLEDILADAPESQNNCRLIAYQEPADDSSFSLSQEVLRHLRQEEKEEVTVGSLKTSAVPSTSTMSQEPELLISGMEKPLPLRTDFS

SMILES | IC50 [nM]
O=C(Nc1cc(OCCCCOc2cc(NC(=O)c3ccc4nnnn4n3)c(C(=O)O)cc2F)ccc1C(=O)O)c1ccc2nnnn2n1 [Compound 1, 4-(4-(4-carboxy-3-(tetrazolo[1,5-b]pyridazine-6-carboxamido)phenoxy)butoxy)-5-fluoro-2-(tetrazolo[1,5-b]pyridazine-6-carboxamido)benzoic acid] | 100 to 1000
O=C(Nc1cc(CCOc2cc(NC(=O)c3ccc4nnnn4n3)c(C(=O)O)cc2F)c(F)cc1C(=O)O)c1ccc(-n2ccnc2)nn1 [Compound 2, 2-(6-(1H-imidazol-1-yl)pyridazine-3-carboxamido)-4-(2-(4-carboxy-2-fluoro-5-(tetrazolo[1,5-b]pyridazine-6-carboxamido)phenoxy)ethyl)-5-fluorobenzoic acid] | 10 to 100
O=C(Nc1cc(C[S+]([O-])Cc2cc(NC(=O)c3ccc(-n4ccnc4)nn3)c(C(=O)O)cc2F)c(F)cc1C(=O)O)c1ccc(-n2ccnc2)nn1 [Compound 7, 4,4′-(sulfinylbis(methylene))bis(2-(6-(1H-imidazol-1-yl)pyridazine-3-carboxamido)-5-fluorobenzoic acid)] | 10 to 100
CN(Cc1cc(NC(=O)c2ccc(-n3ccnc3)nn2)c(C(=O)O)cc1F)Cc1cc(NC(=O)c2ccc(-n3ccnc3)nn2)c(C(=O)O)cc1F [Compound 8, 4,4′-((methylazanediyl)bis(methylene))bis(2-(6-(1H-imidazol-1-yl)pyridazine-3-carboxamido)-5-fluorobenzoic acid)] | < 10
O=C(Nc1cc(OCCCCOc2cc(NC(=O)c3ccc4nnnn4n3)c(C(=O)O)cc2F)c(F)cc1C(=O)O)c1ccc2nnnn2n1 [Compound 12] | 100 to 1000
O=C(Nc1cc(OCCCCOc2ccc(C(=O)O)c(NC(=O)c3ccc(-n4ccnc4)nn3)c2)ccc1C(=O)O)c1ccc(-n2ccnc2)nn1 [Compound 16] | 100 to 1000
O=C(Nc1cc(OCCCCOc2cnc(C(=O)O)c(NC(=O)c3ccc(-n4ccnc4)nn3)c2)c(F)cc1C(=O)O)c1ccc(-n2ccnc2)nn1 [Compound 69] | 100 to 1000
CC(=O)Nc1cc(CCCc2cc(NC(=O)c3ccc(-n4ccnc4)nn3)c(C(=O)O)cc2F)ccc1C(=O)O [Compound 73] | 100 to 1000
O=C(Nc1cc(OCCCCOc2cc(NC(=O)c3ccc(-n4ccnc4)nn3)c(C(=O)O)cc2Cl)ccc1C(=O)O)c1ccc(-n2ccnc2)nn1 [Compound 81] | 100 to 1000
O=C(Nc1cc(CCCc2cc(NC(=O)c3ccc4cnnn4n3)c(C(=O)O)cc2F)c(F)cc1C(=O)O)c1ccc(O)nn1 [Compound 120] | 100 to 1000
CCOC(=O)CCC(=O)c1cc2cc(OCCc3cc(NC(=O)c4ccc5nnnn5n4)c(C(=O)O)cc3F)c(OC)cc2s1 [Compound 122] | 100 to 1000
O=C(Nc1cc(CCOc2cc(NC(=O)c3ccc(-n4ccnc4)nn3)c(P(=O)(O)O)cc2F)c(F)cc1C(=O)O)c1ccc(-n2ccnc2)nn1 [Compound 153] | 100 to 1000
O=C(Nc1cc(OCCc2cc(NC(=O)c3ccc(-n4ccnc4)nn3)c(C(=O)O)cc2F)c(F)cc1C(=O)O)c1ccc(-c2cn[nH]c2)nn1 [Compound 158] | 100 to 1000
O=C(Nc1cc(F)c(CCOc2cc(C(=O)O)c(NC(=O)c3ccc(-n4ccnc4)nn3)cc2F)cc1C(=O)O)c1ccc(-n2ccnc2)nn1 [Compound 178] | 100 to 1000
O=C(Nc1cc(OCCc2cc(NC(=O)c3ccc(-n4ccnc4)nn3)c(-c3nn[nH]n3)cc2F)c(F)cc1C(=O)O)c1ccc(-n2ccnc2)nn1 [Compound 179] | 100 to 1000
NC(=O)c1cc(F)c(CCOc2cc(NC(=O)c3ccc(-n4ccnc4)nn3)c(C(=O)O)cc2F)cc1NC(=O)c1ccc(-n2ccnc2)nn1 [Compound 186] | > 1000
COc1cc(NC(=O)c2ccc(-n3ccnc3)nn2)c(C(=O)O)c(F)c1OCCc1cc(NC(=O)c2ccc(-n3ccnc3)nn2)c(C(=O)O)cc1F [Compound 189] | 100 to 1000
O=C(Nc1cc(CCOc2cc(NC(=O)c3ccc(-n4ccnc4)nn3)c(C(=O)O)cc2F)c(F)cc1CO)c1ccc(-n2ccnc2)nn1 [Compound 198] | 100 to 1000
Cn1nccc1-c1ccc(C(=O)Nc2cc(CCCc3cc(NC(=O)c4ccc(-c5ccnn5C)nn4)c(C(=O)O)cc3F)c(F)cc2C(=O)O)nn1 [Compound 201] | 100 to 1000
Cn1nccc1-c1ccc(C(=O)Nc2cc(CCOc3cc(NC(=O)c4ccc(-c5ccnn5C)nn4)c(C(=O)O)cc3F)c(F)cc2C(=O)O)nn1 [Compound 208] | 100 to 1000
O=C(Nc1cc(OCCCOc2cc(NC(=O)c3ccc(-n4ccnc4)nn3)c(C(=O)O)cc2F)c(F)cc1C(=O)O)c1ccc(N2CCOCC2)nn1 [Compound 211] | 100 to 1000
